Reference: patent publication US4407794A, “Peptides and therapeutic applications thereof” (Centre National de la Recherche Scientifique (CNRS), priority 1980, dated 1983)
Peptide text beside a SMILES is read from it.

Key:
rats [1] = experiment: Anti-diarrhea action, castor oil test; format: in vivo; settings: 10 rats, one hour prior to castor oil
Procedure: This action was investigated by the castor oil test in rats, using the method according to Niemegeers and co-workers (Arzn.-Forsch. 22, 516-518, 1972).
The tests were conducted with male rats of 160-220 g body weight. After an 18 hr fasting period, each animal was orally administered 1 ml castor oil.
The test compounds, dissolved in water, were administered orally under a volume of 0.5 ml per 100 g body weight, one hour prior to the castor oil administration.

μ receptors = μ receptors (Cavia porcellus, UniProt P97266); experiment: Inhibition of the contraction of the isolated guinea-pig ileum induced by coaxial stimulation; format: cell-based, guinea-pigs; settings: for ILEUM Relative action: % activity with respect to Met-Enkephalin=100; for IC50: isolated guinea-pig ileum, coaxial stimulation, number of experiments in parentheses, read-out: ILEUM IC 50
μ receptors, sequence (P97266 whole entry, looked up): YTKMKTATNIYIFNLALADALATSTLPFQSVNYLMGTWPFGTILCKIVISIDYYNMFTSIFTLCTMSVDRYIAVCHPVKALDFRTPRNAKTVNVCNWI
Procedure: (§1) The study of the action on μ receptors or on σ receptors was conducted as a function of the effect on the isolated ileum of guinea-pigs or on the vas deferens of mice.
The action on the μ receptors was determined by the measure of the 50% inhibiting concentration (IC 50) of the contraction of the isolated ileum of guinea-pigs, induced by coaxial stimulation (PATON W.D.M., Brit.J. Pharm. 1959, 12, 119).
The 50% inhibiting concentrations are expressed as nanomolar/liter concentrations. Each product is tested with respect to Met-Enkephalin as reference material and the results obtained are also expressed as % activity with respect to Met-Enkephalin=100.
(§2) The ratio [formula] makes it possible to find out whether the test material is […] σ- specific. In said Table, the number of experiments is indicated between parentheses.

[2] = format: cell-based, mice; settings: mouse vas deferens, electric stimulation; number of experiments in parentheses; read-out: VAS DEFERENS IC 50
Procedure: as §1
(§3) The action on the σ receptors was determined by the measure of the 50% inhibiting concentration (IC 50) of the contraction of the vas deferens of mice, induced by electric stimulation.
(§4) The 50% inhibiting concentrations are expressed as nanomolar/liter concentrations.
as §2

σ receptors = format: cell-based, mice; settings: for VAS DEFERENS Relative action: % activity with respect to Met-Enkephalin=100; for R IC 50 ileum / IC 50 V.D.: ratio of ileum (μ) IC50 to vas deferens IC50
Procedure: as §1, §3, §4, §2

mice = experiment: Analgesic activity, hot-plate (65° C.) test, i.v.; format: in vivo; settings: for Reaction time (s) 15' Licking: 15 minutes; for Reaction time (s) 30' Leap: 30 minutes; for Reaction time (s) 60' Adjusted jump: 60 minutes; for Reaction time (s) 90' Adjusted jump: 90 minutes
Procedure: The compounds were tested in vivo by the intravenous route (i.v.) in mice, using the hot-plate (65° C.) test in mice, according to the method disclosed by JACOB & BLOZOVSKI (Arch.Int.Pharmacodyn. 1961, 33,296) by determination of the licking reflex at 15 minutes, of the leap at 30 minutes and of the adjusted jump at 60 and 90 minutes.
DAla2 Met-Enkephalin was used as reference material.

rats [3] = experiment: Naxolone susceptibility test, appearance of dependence (abstinence jumps); format: in vivo; settings: 25 mg/kg 4 times a day for 10 days, Naxolone 10 mg/kg s.c. on the 10th day
Procedure: This test makes it possible to evaluate the dependence induced by chronic administration of morphinic analgesics. It comprises inducing the dependence condition after 10 days of treatment by injection of a high doage of an antagonist: naxolone. Compound 1 was tested by ICV administration in rats, using the technique according to Frederickson et al., Res. Common.Pathol.Pharmacol. 5, 867(1973).
The results obtained are set forth in Table IV below and are compared with those obtained with morphine.

liberation of dopamine = experiment: Spontaneous liberation of dopamine, ICV injection tests; format: in vivo
rats [4] = experiment: Locomotor activity after i.v. administration; format: in vivo; settings: 5 mg/kg i.v., male rats, group of 10; saline reference group 100 ± 15%
Procedure: This preferential effect of δ-specific compound I on the dopaminergic receptors may be evidenced by i.v. administration of compound I and determination of the locomotor activity according to STINUS et al. Proc.Natl. Acad.Sci.USA 77, 2302 (1980). Each experiment was conducted on a group of 10 animals (male rats weighing 200-250 g) and the results obtained were compared with those of a reference group.

Question: With COc1ccc2c3c1O[C@H]1[C@@H](O)C=C[C@H]4[C@@H](C2)N(C)CC[C@@]341 [Codein base] as the compound, how does the “Number of non-diarrheic animals 2 hours” value (rats [1]; 3 mg/kg orally) read?
Answer: 7

Question: And the “Number of non-diarrheic animals 4 hours” value (rats [1]; 3 mg/kg orally)?
Answer: 4

Question: And the “Number of non-diarrheic animals 2 hours” value (rats [1]; 10 mg/kg orally)?
Answer: 10

Question: What about the “Number of non-diarrheic animals 4 hours” value (rats [1]; 10 mg/kg orally) of the same compound?
Answer: 7

Question: Which “ILEUM Relative action” value (μ receptors) does the source give for CC(C)C[C@H](NC(=O)[C@H](Cc1ccccc1)NC(=O)CNC(=O)[C@@H](CO)NC(=O)[C@@H](N)Cc1ccc(O)cc1)C(=O)N[C@H](C(=O)O)[C@@H](C)O [Example 1, TyrD.SerGlyPheLeuThr] here?
Answer: 55%

Question: What about the IC50 (μ receptors) of the same compound?
Answer: 637 nM

Question: What about the IC50 [2] of the same compound?
Answer: 0.8 nM

Question: What about the “VAS DEFERENS Relative action” value (σ receptors) of the same compound?
Answer: 2250%

Question: What about the “R IC 50 ileum / IC 50 V.D.” value (σ receptors) of the same compound?
Answer: 796

Question: What about the “Reaction time (s) 15' Licking” value (mice; 35 mg/kg i.v.) of the same compound?
Answer: 29.4 ± 3.2 s

Question: What about the “Reaction time (s) 30' Leap” value (mice; 35 mg/kg i.v.) of the same compound?
Answer: 30.1 ± 5.7 s

Question: And the “Reaction time (s) 60' Adjusted jump” value (mice; 35 mg/kg i.v.)?
Answer: 28.6 ± 7.2 s

Question: What about the “Reaction time (s) 90' Adjusted jump” value (mice; 35 mg/kg i.v.) of the same compound?
Answer: 32.2 ± 9.2 s

Question: What about the “Abstinence test (jumps)” value (rats [3]) of the same compound?
Answer: 10 ± 2 jumps

Question: And the “Increase of spontaneous liberation of dopamine” value (shortened to “Increase”) (liberation of dopamine; 5×10^-8 M)?
Answer: 100%

Question: And the Locomotor activity (rats [4])?
Answer: 65 ± 10%

Question: Which IC50 (μ receptors) does the source give for CC(C)C[C@H](NC(=O)[C@H](Cc1ccccc1)NC(=O)CNC(=O)[C@@H](C)NC(=O)[C@@H](N)Cc1ccc(O)cc1)C(=O)N[C@H](C(=O)O)[C@@H](C)O [Example 2, TyrD.AlaGlyPheLeuThr] (HELM PEPTIDE1{Y.[dA].G.F.L.T}$$$$V2.0) here?
Answer: 500 nM

Question: Which “ILEUM Relative action” value (μ receptors) does the source give for CSCC[C@H](NC(=O)[C@H](Cc1ccccc1)NC(=O)CNC(=O)[C@@H](C)NC(=O)[C@@H](N)Cc1ccc(O)cc1)C(=O)NCCCCCNS(=O)(=O)c1cccc2c(N(C)C)cccc12 [Example 13 of patent FR 78 12 543] here?
Answer: 110%

Question: And the IC50 [2]?
Answer: 650 nM

Question: And the “VAS DEFERENS Relative action” value (σ receptors)?
Answer: 2.7%

Question: What about the “R IC 50 ileum / IC 50 V.D.” value (σ receptors) of the same compound?
Answer: 0.49

Question: With CCCC[C@H](NC(=O)[C@H](Cc1ccccc1)NC(=O)CNC(=O)[C@@H](CO)NC(=O)[C@@H](N)Cc1ccc(O)cc1)C(=O)N[C@H](C(=O)O)[C@@H](C)O [Example 25, TyrD.SerGlyPheN.LeuThr] as the compound, how does the IC50 (μ receptors) read?
Answer: 1050 nM

Question: Which IC50 (μ receptors) does the source give for CC(C)C[C@@H](NC(=O)[C@H](Cc1ccccc1)NC(=O)CNC(=O)[C@@H](CO)NC(=O)[C@@H](N)Cc1ccc(O)cc1)C(=O)O [Example 45, TyrD.SerGlyPheD.Leu] (HELM PEPTIDE1{Y.[dS].G.F.[dL]}$$$$V2.0) here?
Answer: 247 nM

Question: Which “ILEUM Relative action” value (μ receptors) does the source give for CSCC[C@H](NC(=O)[C@H](Cc1ccccc1)NC(=O)CNC(=O)CNC(=O)[C@@H](N)Cc1ccc(O)cc1)C(=O)O [Met-Enkephalin] here?
Answer: 100%

Question: And the IC50 (μ receptors)?
Answer: 354 nM

Question: And the “VAS DEFERENS Relative action” value (σ receptors)?
Answer: 100%

Question: What does the source list for CN1CC[C@]23c4c5ccc(O)c4O[C@H]2[C@@H](O)C=C[C@H]3[C@H]1C5.Cl [Morphin (hydrochloride)]?
Answer: Number of non-diarrheic animals 2 hours (rats [1]; 1 mg/kg orally): 9; Number of non-diarrheic animals 4 hours (rats [1]; 1 mg/kg orally): 4; Number of non-diarrheic animals 2 hours (rats [1]; 3 mg/kg orally): 10; Number of non-diarrheic animals 4 hours (rats [1]; 3 mg/kg orally): 6

Question: Which “Abstinence test (jumps)” value (rats [3]) does the source give for CN1CC[C@]23c4c5ccc(O)c4O[C@H]2[C@@H](O)C=C[C@H]3[C@H]1C5 [Morphin, morphine] here?
Answer: 74 ± 11 jumps

Question: What about the “Increase” value (liberation of dopamine; 10^-6 M) of the same compound?
Answer: 50%

Question: For D.Ala2 Met-Enkephalin, which “Reaction time (s) 15' Licking” value (mice; 100 mg/kg i.v.) is on record?
Answer: 5.5 ± 1 s

Question: And the “Reaction time (s) 30' Leap” value (mice; 100 mg/kg i.v.)?
Answer: 5.5 ± 1.6 s

Question: What about the “Reaction time (s) 60' Adjusted jump” value (mice; 100 mg/kg i.v.) of the same compound?
Answer: 5.5 ± 1.2 s

Question: And the “Reaction time (s) 90' Adjusted jump” value (mice; 100 mg/kg i.v.)?
Answer: 5.6 ± 2 s

Question: With DAla^2 Met.Enkamide as the compound, how does the “Increase” value (liberation of dopamine; 10^-6 M) read?
Answer: 100%
